Test results reported in US7094911B2, “Biphenyl and biphenyl-analogous compounds as integrin antagonists” (Bayer Aktiengesellschaft, priority 1998, dated 2006).

melting point | SMILES
> 240 °C | COc1ccc(-c2cccc(NC(=O)Nc3nccs3)c2)cc1S(=O)(=O)NC(CC(=O)O)c1ccccc1 (stereo not shown) [Example 4.99]
> 240 °C | COc1ccc(-c2cccc(NC(=O)NCC(F)(F)F)c2)cc1S(=O)(=O)NC(CC(=O)O)c1ccccc1 (stereo not shown) [Example 4.100]
> 240 °C | COc1ccc(-c2cccc(NC(=O)NCCSC(F)(F)F)c2)cc1S(=O)(=O)NC(CC(=O)O)c1ccccc1 (stereo not shown) [Example 4.101]
> 240 °C | COc1ccc(-c2cccc(NC(=O)NCc3ccc(C(F)(F)F)cc3)c2)cc1S(=O)(=O)NC(CC(=O)O)c1ccccc1 (stereo not shown) [Example 4.102]
> 240 °C | COc1ccc(-c2cccc(NC(=O)/N=c3\[nH]c4ccc(C(=O)O)cc4[nH]3)c2)cc1S(=O)(=O)NC(CC(=O)O)c1ccccc1 (stereo not shown) [Example 4.103]
> 240 °C | COc1ccc(-c2cccc(NC(=O)N=c3[nH]c4cc(C)c(C)cc4[nH]3)c2)cc1S(=O)(=O)NC(CC(=O)O)c1ccccc1 (stereo not shown) [Example 4.104]
> 240 °C | COc1ccc2[nH]/c(=N\C(=O)Nc3cccc(-c4ccc(OC)c(S(=O)(=O)NC(CC(=O)O)c5ccccc5)c4)c3)[nH]c2c1 (stereo not shown) [Example 4.105]
> 240 °C | COc1ccc(-c2cccc(NC(=O)Nc3nncs3)c2)cc1S(=O)(=O)NC(CC(=O)O)c1ccccc1 (stereo not shown) [Example 4.106]
117 °C | CN(CC(=O)O)S(=O)(=O)c1cccc(-c2cccc(NC(=O)NC3CC3)c2)c1 [Example 6.11]
90 °C | CCCNC(=O)Nc1cccc(-c2cccc(S(=O)(=O)N(C)CC(=O)O)c2)c1 [Example 6.12]
184 °C | CN(CC(=O)O)S(=O)(=O)c1cccc(-c2cccc(NC(=O)N=c3[nH]c4ccccc4[nH]3)c2)c1 [Example 6.13]
142 °C | CN(CC(=O)O)S(=O)(=O)c1cccc(-c2cccc(NC(=O)Nc3ccncc3)c2)c1 [Example 6.14]
90 °C | N#C/N=C(\NCc1ccccc1)Nc1cccc(-c2cccc(S(=O)(=O)NC(CC(=O)O)c3ccccc3)c2)c1 (stereo not shown) [Example 10.1.5, 3-[(3′-{[(benzylamino)(cyanoimino)methyl]amino}[1,1′-biphenyl]-3-yl)sulfonylamino]-3-phenyl-propanoic acid]
120 °C | N#C/N=C(/Nc1cccc(-c2cccc(S(=O)(=O)NC(CC(=O)O)c3ccccc3)c2)c1)NC1CC1 (stereo not shown) [Example 10.3.5, 3-[(3′-{[(cyclopropylamino)(cyanoimino)methyl]amino}[1,1′-biphenyl]-3-yl)sulfonylamino]-3-phenyl-propanoic acid]
178 °C | CC1(C)[C@H]2CCC1(CS(=O)(=O)N[C@@H](Cc1ccc(-c3cccc(N/C(=N/C#N)NC4CC4)c3)cc1)C(=O)O)C(=O)C2 [Example 10.5]
184 °C | CCCN/C(=N\C#N)Nc1cccc(-c2ccc(C[C@H](NS(=O)(=O)c3c(C)cc(C)cc3C)C(=O)O)cc2)c1 [Example 10.6]
169 °C | Cc1cc(C)c(S(=O)(=O)N[C@@H](Cc2ccc(-c3cccc(N/C(=N/C#N)NCc4ccccc4)c3)cc2)C(=O)O)c(C)c1 [Example 10.8]
174 °C (dec.) | Cc1cc(C)c(S(=O)(=O)N[C@@H](Cc2ccc(-c3cccc(N/C(=N/C#N)NCc4ccccn4)c3)cc2)C(=O)O)c(C)c1 [Example 10.9]
149 °C | Cc1cc(C)c(S(=O)(=O)N[C@@H](Cc2ccc(-c3cccc(N/C(=C/[N+](=O)[O-])NC4CC4)c3)cc2)C(=O)O)c(C)c1 [Example 12.1.5, (2S)-3-(3′-{[(E)-1-(cyclopropylamino)-2-nitroethenyl]amino}[1,1′-biphenyl]-4-yl)-2-[(mesitylsulfonyl)amino]-propanoic acid]
150 °C (dec.) | C=CCN/C(=C\[N+](=O)[O-])Nc1cccc(-c2ccc(C[C@H](NS(=O)(=O)CC34CC[C@@H](CC3=O)C4(C)C)C(=O)O)cc2)c1 [Example 12.5]
185 °C (dec.) | C#CCN/C(=C\[N+](=O)[O-])Nc1cccc(-c2ccc(C[C@H](NS(=O)(=O)CC34CC[C@@H](CC3=O)C4(C)C)C(=O)O)cc2)c1 [Example 12.6]
126 °C (dec.) | CC1(C)[C@H]2CCC1(CS(=O)(=O)N[C@@H](Cc1ccc(-c3cccc(N/C(=C/[N+](=O)[O-])NCc4ccccn4)c3)cc1)C(=O)O)C(=O)C2 [Example 12.7]
170 °C | CC1(C)[C@H]2CCC1(CS(=O)(=O)N[C@@H](Cc1ccc(-c3cccc(N/C(=C/[N+](=O)[O-])NCc4cccnc4)c3)cc1)C(=O)O)C(=O)C2 [Example 12.8]
151 °C (dec.) | CC1(C)[C@H]2CCC1(CS(=O)(=O)N[C@@H](Cc1ccc(-c3cccc(N/C(=C/[N+](=O)[O-])NC4CCC4)c3)cc1)C(=O)O)C(=O)C2 [Example 12.9]
164 °C | Cc1cc(C)c(S(=O)(=O)N[C@@H](Cc2ccc(-c3cccc(Nc4c(NC5CC5)c(=O)c4=O)c3)cc2)C(=O)O)c(C)c1 [Example 13.1.3, (2S)-3-(3′-{[2-(cyclopropylamino)-3,4-dioxo-1-cyclobuten-1-yl]-amino}[1,1′-biphenyl]-4-yl)-2-[(mesitylsulfonyl)amino]-propanoic acid]
204 °C (dec.) | O=C(O)CNS(=O)(=O)c1cccc(-c2cccc(Nc3c(NC4CC4)c(=O)c3=O)c2)c1 [Example 13.2]

melting point | SMILES
214 °C (dec.) | Cc1cc(C)c(S(=O)(=O)N[C@@H](Cc2ccc(-c3cccc(Nc4c(NCc5ccccn5)c(=O)c4=O)c3)cc2)C(=O)O)c(C)c1 [Example 13.3]
226 °C (dec.) | Cc1cc(C)c(S(=O)(=O)N[C@@H](Cc2ccc(-c3cccc(Nc4c(NCc5ccccc5)c(=O)c4=O)c3)cc2)C(=O)O)c(C)c1 [Example 13.4]
152 °C | CC1(C)[C@H]2CCC1(CS(=O)(=O)N[C@@H](Cc1ccc(-c3cccc(NC4=C(NC5CC5)C(=O)C4O)c3)cc1)C(=O)O)C(=O)C2 (stereo partly shown) [Example 13.5]
191 °C (dec.) | O=C(O)CC(NS(=O)(=O)c1cccc(-c2cccc(Nc3c(Nc4nc5ccccc5[nH]4)c(=O)c3=O)c2)c1)c1ccccc1 (stereo not shown) [Example 13.6]
214 °C (dec.) | O=C(O)CC(NS(=O)(=O)c1cccc(-c2cccc(Nc3c(NC4CC4)c(=O)c3=O)c2)c1)c1ccccc1 (stereo not shown) [Example 13.7]
149 °C (dec.) | O=C(O)CC(NS(=O)(=O)c1cccc(-c2cccc(Nc3c(NCc4ccccn4)c(=O)c3=O)c2)c1)c1ccccc1 (stereo not shown) [Example 13.8]
210 °C (dec.) | CS(=O)(=O)N[C@@H](Cc1ccc(-c2cccc(Nc3c(NC4CC4)c(=O)c3=O)c2)cc1)C(=O)O [Example 13.9]
219 °C (dec.) | O=C(O)CC(NS(=O)(=O)c1cccc(-c2cccc(Nc3c(NCC(F)(F)F)c(=O)c3=O)c2)c1)c1cccnc1 (stereo not shown) [Example 13.11]
130 °C (dec.) | O=C(O)CC(NS(=O)(=O)c1cccc(-c2cccc(Nc3nccs3)c2)c1)c1ccccc1 (stereo not shown) [Example 15.1.2, 3-phenyl-3-{[3′-(1,3-thiazol-2-ylamino)[1,1′-biphenyl]-3-yl]sulfonylamino}-propanoic acid]
190 °C (dec.) | Cc1cc(C)c(S(=O)(=O)N[C@@H](Cc2ccc(-c3cccc(Nc4nc5ccccc5[nH]4)c3)cc2)C(=O)O)c(C)c1 [Example 16.1.3, (2S)-3-[3′-(1H-benzimidazol-2-ylamino)[1,1′-biphenyl]-4-yl]-2-[(mesitylsulfonyl)amino]propanoic acid]
180 °C (dec.) | Cc1cc(C)c(S(=O)(=O)N[C@@H](Cc2ccc(-c3cccc(Nc4n[s+]([O-])nc4NC4CC4)c3)cc2)C(=O)O)c(C)c1 (stereo partly drawn) [Example 17.1.3, (2S)-2-[(Mesitylsulfonyl)amino]-3-(3′-{[4-(cyclopropylamino)-1-oxo-1H-1[lambda]4,2,5-thiadiazol-3-yl]amino}[1,1′-biphenyl]-4-yl)-propanoic acid]
138 °C | COc1ccc(-c2cccc(CNc3ccccn3)c2)cc1S(=O)(=O)NC(CC(=O)O)c1ccccc1 (stereo not shown) [Example 18.3]
> 240 °C | Cc1cc(C)c(S(=O)(=O)N[C@@H](Cc2ccc(-c3cccc(CNc4nc5ccccc5[nH]4)c3)cc2)C(=O)O)c(C)c1 [Example 18.4]
> 240 °C | COc1ccc(-c2cccc(CNc3nc4ccccc4[nH]3)c2)cc1S(=O)(=O)NC(CC(=O)O)c1ccccc1 (stereo not shown) [Example 18.5]
> 240 °C | CCS(=O)(=O)N[C@@H](Cc1ccc(-c2cccc(CNc3ccccn3)c2)cc1)C(=O)O [Example 18.7]
> 240 °C | O=C(O)[C@H](Cc1ccc(-c2cccc(CNc3ccccn3)c2)cc1)NS(=O)(=O)c1ccc(F)cc1 [Example 18.8]
> 240 °C | O=C(O)[C@H](Cc1ccc(-c2cccc(CNc3ccccn3)c2)cc1)NS(=O)(=O)c1cccs1 [Example 18.9]
> 240 °C | O=C(O)[C@H](Cc1ccc(-c2cccc(CNc3ccccn3)c2)cc1)NS(=O)(=O)Cc1ccc(F)cc1 [Example 18.10]
> 240 °C | O=C(O)[C@H](Cc1ccc(-c2cccc(CNc3ccccn3)c2)cc1)NS(=O)(=O)C1CC1 [Example 18.11]
> 240 °C | O=C(O)[C@H](Cc1ccc(-c2cccc(CNc3ccccn3)c2)cc1)NS(=O)(=O)c1c(F)cccc1F [Example 18.12]
> 240 °C | O=C(O)[C@H](Cc1ccc(-c2cccc(CNc3ccccn3)c2)cc1)NS(=O)(=O)c1c(Cl)cccc1Cl [Example 18.13]
> 240 °C | O=C(O)[C@H](Cc1ccc(-c2cccc(CNc3ccccn3)c2)cc1)NS(=O)(=O)c1ccc(Cl)s1 [Example 18.14]
140 °C (dec.) | Cc1cc(C)c(S(=O)(=O)N[C@@H](Cc2ccc(-c3cccc(NC(=O)c4ccc[nH]4)c3)cc2)C(=O)O)c(C)c1 [Example 19.2]
234 °C | COc1ccc(-c2cccc(NC(=O)c3ccc[nH]3)c2)cc1S(=O)(=O)NC(CC(=O)O)c1ccccc1 (stereo not shown) [Example 19.3]
> 240 °C | Cc1cc(C)c(S(=O)(=O)N[C@@H](Cc2ccc(-c3cccc(NC(=O)c4cccnc4)c3)cc2)C(=O)O)c(C)c1 [Example 19.4]
> 200 °C | COc1ccc(-c2cccc(NC(=O)c3ncc[nH]3)c2)cc1S(=O)(=O)NC(CC(=O)O)c1ccccc1 (stereo not shown) [Example 19.5]
